From patent publication US9346832B2, “Gold complexes for use in the treatment of cancer” (University of Kwazulu-Natal, priority 2010, dated 2016)
Read-outs that look alike come from different tables or passages of the source.

Tests used:
in vitro = details: human
Excerpt: The Caco-2 data are especially important as many drugs fail due to poor membrane transport/absorption.

topoisomerase II = topoisomerase II (Homo sapiens, UniProt P11388); assay: Topoisomerase II DNA cleavage/relaxation assay, supercoiled plasmid DNA, EB gel (TopoGEN protocol); type: biochemical; details: for action on topoisomerase II: compared with VP-16 (etoposide); for concentration at which topoisomerase II poisoning (DNA cleavage induction) is observed: supercoiled plasmid DNA, linear cleavage products
Sequence of topoisomerase II (P11388 whole entry): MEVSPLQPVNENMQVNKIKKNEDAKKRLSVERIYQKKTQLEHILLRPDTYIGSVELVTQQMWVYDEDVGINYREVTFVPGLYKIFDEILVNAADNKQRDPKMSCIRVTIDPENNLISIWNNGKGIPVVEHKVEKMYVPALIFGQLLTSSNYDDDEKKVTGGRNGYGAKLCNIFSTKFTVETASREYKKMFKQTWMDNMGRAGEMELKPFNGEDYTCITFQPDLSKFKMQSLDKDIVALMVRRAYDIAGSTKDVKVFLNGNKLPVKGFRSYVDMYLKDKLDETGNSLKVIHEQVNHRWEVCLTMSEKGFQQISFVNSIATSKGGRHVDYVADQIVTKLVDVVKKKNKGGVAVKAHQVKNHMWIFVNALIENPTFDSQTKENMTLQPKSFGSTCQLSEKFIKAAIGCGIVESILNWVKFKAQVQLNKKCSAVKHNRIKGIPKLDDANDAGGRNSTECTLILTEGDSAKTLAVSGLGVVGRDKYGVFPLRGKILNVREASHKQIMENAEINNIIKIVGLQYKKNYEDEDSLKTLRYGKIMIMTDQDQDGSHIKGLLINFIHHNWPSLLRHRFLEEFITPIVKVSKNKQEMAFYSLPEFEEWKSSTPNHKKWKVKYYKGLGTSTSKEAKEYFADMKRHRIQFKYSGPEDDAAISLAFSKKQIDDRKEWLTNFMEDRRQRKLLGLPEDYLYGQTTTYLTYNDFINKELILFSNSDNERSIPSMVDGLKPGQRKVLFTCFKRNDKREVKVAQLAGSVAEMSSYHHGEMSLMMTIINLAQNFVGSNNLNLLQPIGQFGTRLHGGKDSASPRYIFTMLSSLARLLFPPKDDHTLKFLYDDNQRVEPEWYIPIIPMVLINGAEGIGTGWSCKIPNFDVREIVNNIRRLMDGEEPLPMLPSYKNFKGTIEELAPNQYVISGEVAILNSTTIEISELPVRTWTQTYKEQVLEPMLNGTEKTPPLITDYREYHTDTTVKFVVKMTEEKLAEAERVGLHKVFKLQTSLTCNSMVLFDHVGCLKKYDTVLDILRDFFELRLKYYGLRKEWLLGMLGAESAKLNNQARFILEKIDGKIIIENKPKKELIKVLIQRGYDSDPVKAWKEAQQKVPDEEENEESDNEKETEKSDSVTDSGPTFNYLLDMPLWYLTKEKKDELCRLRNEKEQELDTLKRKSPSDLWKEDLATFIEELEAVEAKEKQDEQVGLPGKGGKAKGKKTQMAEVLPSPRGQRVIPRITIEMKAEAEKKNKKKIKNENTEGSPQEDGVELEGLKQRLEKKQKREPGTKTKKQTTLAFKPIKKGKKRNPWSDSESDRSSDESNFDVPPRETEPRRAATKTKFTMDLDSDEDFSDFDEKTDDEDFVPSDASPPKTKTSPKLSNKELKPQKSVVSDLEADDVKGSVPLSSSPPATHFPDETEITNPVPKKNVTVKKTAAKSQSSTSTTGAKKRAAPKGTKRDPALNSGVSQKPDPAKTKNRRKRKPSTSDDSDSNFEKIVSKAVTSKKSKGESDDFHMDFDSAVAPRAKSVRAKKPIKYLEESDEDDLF
Procedure: The compound MA_AuPr clearly targets topoisomerase II if the statistical analysis of the NCI data for a range of drugs shown in FIG. 13 is correct. MA_AuPr was therefore assayed for its action against topoisomerase II in vitro using TopoGEN's standard protocol over a wide range of test agent concentrations (0.005 to 500 μM) in order to obtain direct experimental proof for the apparent cellular target of the compound to ensure that a fundamental understanding of the mechanism of action of this new class of Au(III) compounds exists. These experiments were performed by the company TopoGEN and at the University of Central Florida. The DNA cleavage experiments were performed in vitro using purified topoisomerase I and II enzymes and supercoiled plasmid DNA as the substrate. The controls that were used in the experiment were linear marker DNA as well as reactions without the gold(III) complex and high concentrations of VP16. The compound VP16 (etoposide) is a commercially available DNA intercalator chemotherapeutic agent, widely used in the treatment of lung and testicular cancers as well as lymphomas. The choice of VP16 as a control is based on the fact that it is a poor topoisomerase II inhibitor, but is a powerful topoisomerase II poison which arrests the enzyme's cycle at the ternary drug-enzyme-DNA cleavage complex stage, leading to observation of linear DNA fragments upon SDS denaturation of the enzyme (i.e., work-up). Comparison of the VP16 results with the results of MA_AuPr would therefore give a good indication of whether the gold(III) chelate is an inhibitor or a poison.
Lane 1 of the gel (FIG. 14) is the control experiment with only supercoiled plasmid DNA present. The control contains no topoisomerase II and so the DNA supercoiled structure cannot be relaxed, as the topoisomerase II enzyme would usually do. […] At a higher concentration of the test agent (50 μM), both supercoiled plasmid DNA and linear cleavage products are observed. […] At very high concentrations (>500 μM), MA_AuPr behaves exclusively as a catalytic inhibitor of the enzyme.
The role of gold(III) in the efficacy of the compound was determined by modifying the structure of MA_AuPr by replacing the Au(III) cation with Pd(II) to afford MA_PdPr (the isoelectronic square planar coordination complex of known structure and geometry^31) and carrying out the DNA relaxation assay with topoisomerase II as before. The metal-free ligand (MA_H2PrLig) was tested under identical conditions to confirm that the mechanism of action is related to the intact structure of the metal chelate.

calf thymus DNA = assay: Calf-thymus DNA titration (absorption hypochroism); type: binding
Procedure: FIG. 20 is a graph of the titration of MA_AuPr (1.1a) with calf-thymus DNA in aqueous pH 7 phosphate buffer at 37° C.
The hypochroism of the absorption band of the complex at 383 nm was monitored as a function of added ctDNA. […] Ka is the equilibrium binding constant in M^−1, Ct is the total Au(III) complex concentration, and s is the binding site size.

human cancer cell lines = assay: Cytotoxicity summary (NCI-60 or independent cytotoxicity screen), Scheme 19; type: cell-based
[1] = tested on: 60 human cancer cell lines; assay: NCI-60 five-dose screen, mean cytotoxicity over 60 human cancer cell lines; type: cell-based
Procedure: The gold(III) complexes of this invention were screened by the National Cancer Institute (NCI, USA) against their panel of 60 different human cancer cell lines. These screens initially entail a one-dose test for the compound at a high concentration (10 μM; e.g. FIGS. 5, 6 and 7). Compounds with a good cytotoxicity profile in the one-dose screen are then subjected to a five-dose screen for the full panel of sixty human cancer cell lines (the so-called 5-dose NCI-60 screen). In the full five-dose screen, the compound concentration is varied in five doses from 10^−8 M to 10^−4 M in order to establish a dose-response function of percentage cell growth versus the concentration of the test agent. […] Similar data will shortly be available for compounds 1.1Y^1b and 1.5Y^1a as these derivatives are in 5-dose screens currently at the NCI.
The mean cytotoxicity data summarized in Scheme 7 were compiled over 60 human cancer cell lines from the NCI database. […] The dose-response curves for the bis(pyrrolide-imine) chelates of the invention are steeper, or harder, than those of all the compounds compared in Scheme 7.

[2] = tested on: 60 human cancer cell lines; details: cited from earlier work; for GI50 / CC50 / IC50: mean over 60 cell lines; for CC50: read-out: LC50, 50% cell death; for IC50: read-out: TGI or IC50, total growth inhibition
[3] = HepG2 cytotoxicity / cell health parameters; type: cell-based, human; details: human
Excerpt: (§1) The data for MA_AuPr in Scheme 22 are consistent with a cytotoxic compound capable of inducing apoptosis (programmed cell death) and, indeed, a compound that performs better than the control drug. […] Other cell health parameters which respond are a loss of total cells per well (indicating toxicity due to necrosis, apoptosis or a reduction in cellular proliferation), an increase in nuclear area (indicating necrosis or G2 cell cycle arrest), an increase in cytochrome c release (implying activation of a signalling cascade leading to apoptosis). The latter is particularly relevant as we may rule out cell death by necrosis in the case of MA_AuPr. The mechanism of action of the compound thus leads to cell cycle arrest in the G2 phase and the induction of apoptosis (highly desirable for an anticancer drug). […] Since the compound induces cytochrome c release, cytotoxicity involves apoptosis.

[4] = tested on: HepG2 human hepatocellular carcinoma cells; assay: HepG2 cytotoxicity / cell health parameters; type: cell-based; details: human
Excerpt: as §1

HeLa cells = assay: HeLa cell cytotoxicity dose-response; type: cell-based
Procedure: FIG. 9 is a graph of the dose-response curves (HeLa cells, pH 7.0, 37° C.) for three macrocyclic Au(III) chelates. IC50 values for the complexes against HeLa cells obtained from the least squares data fits (graph) are given in the 3rd column of the table.
A summary of the average cytotoxicity data over 60 human cancer cell lines for 1.1a-1.1c and comparison with selected commercial and patented cytotoxic agents is shown in Scheme 7. […] The more abrupt the curve, the harder the dose-response function.

[5] = MA series: pH 7.0 phosphate buffer at 37° C.
[6] = comparison drugs, NCI database, 50% growth inhibition

What does the source list for `CC(=O)CC(c1ccccc1)c1c(O)c2ccccc2oc1=O` (stereo not drawn) [Warfarin]?
Papp A→B at 2 h, 10 µM (in vitro; Caco-2): 37 ×10⁻⁶ cm/s; Papp B→A at 2 h, 10 µM (in vitro; Caco-2): 8 ×10⁻⁶ cm/s; efflux ratio at 2 h, 10 µM (in vitro; Caco-2): 0.2

With `C(=NCCCN=Cc1ccc[nH]1)c1ccc[nH]1` [MA_H2PrLig] as the compound, how does the “action on topoisomerase II” value (topoisomerase II) read?
Its value is “inactivity”.

What about the “concentration at which topoisomerase II poisoning (DNA cleavage induction) is observed” value (topoisomerase II) of the same compound?
Its value is 500 µM.

Which results are given for `CNC(=C[N+](=O)[O-])NCCSCc1ccc(CN(C)C)o1` [Ranitidine]?
Papp A→B at 2 h, 10 µM (in vitro): 0.7 ×10⁻⁶ cm/s; Papp B→A at 2 h, 10 µM (in vitro): 2.3 ×10⁻⁶ cm/s; efflux ratio at 2 h, 10 µM (in vitro): 3.3

With `CCOC1C[N+]2=Cc3ccc[n]3[Au-]23[n]2cccc2C=[N+]3C1.F[P-](F)(F)(F)(F)F` [MA_AuOEt, 2,2{(2-ethoxypropane-1,3-diyl)bis[nitrilo(E)methylylidene]}bis(pyrrol-1-ido)gold(III) hexafluorophosphate(V)] as the compound, how does the “Ka (calf thymus DNA)” value (calf thymus DNA; [5]) read?
The value was 1.01(4) × 10^6 M^−1.

And the Cytotoxicity (human cancer cell lines)?
Its Cytotoxicity is “active”.

Which results are given for `CC1(C)C[N+]2=Cc3ccc[n]3[Au-]23[n]2cccc2C=[N+]3C1.[Cl-]` [MA_AuDM, 2,2′{(2,2-dimethylpropane-1,3-diyl)bis[nitrilo(E)methyl-ylidene]}bis(pyrrol-1-ido)gold(III) chloride]?
fraction of cancer cell lines equivalently or more susceptible than to cisplatin ([1]; 60 human cancer cell lines): around 12%; CC50 ([1]; mean over 60 human cancer cell lines, 50% cell death, read-out: LC50 (the source's name)): 72 µM; GI50 ([1]; mean over 60 human cancer cell lines, 50% growth inhibition): 12 µM; TGI (concentration for total growth inhibition) ([1]; mean over 60 human cancer cell lines, 100% (total) growth inhibition, read-out: TGI or IC50): 31 µM; growth inhibition activity relative to cisplatin, on average ([1]; plot of −log(GI50/M) versus cisplatin, FIG. 10): 91%; Ka (calf thymus DNA) (calf thymus DNA; [5]): 1.63(3) × 10^5 M^−1; Cytotoxicity (human cancer cell lines): active

What does the source list for `Cl.Cl.[Cl][Au-]12[n+]3ccccc3-c3cccc([n+]31)-c1cccc[n+]12` [(Au^III(terpy)Cl]Cl2]?
GI50 [2, 6]: 0.13 µM; CC50 ([2]; comparison drugs, NCI database): 73 µM; IC50 ([2]; comparison drugs, NCI database): 11 µM

For `O=NN(CCCl)C(=O)NCCCl` [carmustine], which “mean −log(GI50)” value ([2]; selected human cancer cell lines, data not shown) is on record?
Its value is 4.20.

With `CC[C@@]1(O)C(=O)OCc2c1cc1n(c2=O)Cc2cc3ccccc3nc2-1` [Camptothecin] as the compound, how does the “increase in concentration from 50% growth inhibition to 50% cell kill” value ([1]; on average over the full 60 cell lines) read?
The value was 825 fold.

And the GI50 ([2]; comparison drug)?
Its GI50 is 0.04 µM.

What about the GI50 [2, 6] of the same compound?
The GI50 was 0.04 µM.

And the CC50 ([2]; comparison drugs, NCI database)?
The CC50 was 33 µM.

What about the IC50 ([2]; comparison drugs, NCI database) of the same compound?
The IC50 was 0.89 µM.

Which “Ka (calf thymus DNA)” value (calf thymus DNA; [5]) does the source give for `ClC1C[N+]2=Cc3ccc[n]3[Au-]23[n]2cccc2C=[N+]3C1.F[P-](F)(F)(F)(F)F` [MA_AuCl, 2,2′-{(2-chloropropane-1,3-diyl)bis[nitrilo(E)methylylidene]}bis(pyrrol-1-ido)gold(III) hexafluorophosphate(V)] here?
Its value is 3.91(7) × 10^5 M^−1.

What about the Cytotoxicity (human cancer cell lines) of the same compound?
Its Cytotoxicity is “active”.

For `CN(C)CCCN1c2ccccc2Sc2ccc(Cl)cc21` [Chlorpromazine, reference compound], which AC50 ([3]; Cell Loss AC50) is on record?
The AC50 was 7.8 µM.

What about the AC50 ([3]; Cytochrome C release AC50) of the same compound?
Its AC50 is 16 µM.

What about the AC50 ([3]; DNA structure AC50) of the same compound?
The AC50 was 196 µM.

What about the AC50 ([3]; Membrane permeability AC50) of the same compound?
Its AC50 is 30 µM.

And the AC50 ([3]; Mitochondrial mass AC50)?
Its AC50 is 5.4 µM.

What about the AC50 ([3]; Mitochondrial membrane potential AC50) of the same compound?
The AC50 was 50 µM.

And the AC50 ([3]; Nuclear Area AC50)?
The AC50 was 100 µM.

What about the “Cell Loss MEC” value [4] of the same compound?
Its value is 100 µM.

What about the “Cytochrome C release MEC” value [4] of the same compound?
The value was 11 µM.

What about the “DNA structure MEC” value [4] of the same compound?
The value was 11 µM.

What about the “Mitochondrial mass MEC” value [4] of the same compound?
Its value is 3.7 µM.

And the “Mitochondrial membrane potential MEC” value [4]?
Its value is 3.7 µM.

And the “Nuclear Area MEC” value [4]?
Its value is over 11 µM.

For `CO[C@@]12[C@H](COC(N)=O)C3=C(C(=O)C(C)=C(N)C3=O)N1C[C@@H]1N[C@@H]12` [Mitomycin], which GI50 [2, 6] is on record?
Its GI50 is 0.71 µM.

What about the IC50 ([2]; comparison drugs, NCI database) of the same compound?
Its IC50 is 6.5 µM.

With `C1=[N+]2CCCC[N+]3=Cc4ccc5[n]4[Au-]23[n]2c1ccc2-c1nc2ccccc2nc1-5.F[P-](F)(F)(F)(F)F` [KA_AumacroBu, {12,13,14,15-tetrahydro-6,9:18,21-diepimino[1,6]diazacycloctadecino[12,13-b]quinoxalinato}gold(III) hexafluorophosphate(V)] as the compound, how does the GI50 (HeLa cells) read?
Its GI50 is about 0.1 µM.

And the IC50 (HeLa cells; pH 7.0, 37° C.)?
The IC50 was 0.37 µM.

What about the CC50 (HeLa cells; read-out: LC50 (the source's name)) of the same compound?
Its CC50 is under 10 µM.

What about the “Ka (calf thymus DNA)” value (calf thymus DNA; KA series: pH 7.0 15% DMSO-TRIS buffer at 25° C.) of the same compound?
The value was 1.20(9) × 10^6 M^−1.

And the Cytotoxicity (human cancer cell lines)?
Its Cytotoxicity is “active”.

Which “weaker effect than the gold(III) complex” value (topoisomerase II; DNA-cleavage induction in presence of topoisomerase II) does the source give for `C(=NCCCN=Cc1ccc[n-]1)c1ccc[n-]1.[Pd+2]` [MA_PdPr] here?
The value was 100 fold.

And the “action on topoisomerase II” value (topoisomerase II)?
The value was “diminished activity”.

What about the “concentration at which topoisomerase II poisoning (DNA cleavage induction) is observed” value (topoisomerase II) of the same compound?
The value was 50 µM.
